Test results published in patent US20230055237A1, “COMPOUNDS AND METHODS FOR THE TREATMENT OF CYSTIC FIBROSIS” (Flatley Discovery Lab, LLC, priority 2019, published 2023).

Biological target: T1, CFTR (Homo sapiens, UniProt P13569, DEL508-508)
T1 construct: Primary CF airway epithelial cells were obtained from the UNC Cystic Fibrosis Tissue Procurement and Cell Culture Core; host or cells: primary CF airway epithelial cells, differentiated at the air-liquid interface
Experiment: Equivalent current assay in primary CF airway epithelial cells (NAUC, combination with 1st site corrector FDL169 or VX-809)
Type: cell-based
Conditions: 37° C., 24 h

[1] = test compound 1 μM in combination with 1st site corrector FDL169 (3 μM)
[2] = test compound 3 μM in combination with 1st site corrector FDL169 (3 μM)
[3] = test compound 10 μM in combination with 1st site corrector FDL169 (3 μM)
[4] = test compound 1 μM in combination with 1st site corrector VX-809 (3 μM)
[5] = test compound 3 μM in combination with 1st site corrector VX-809 (3 μM)
[6] = test compound 10 μM in combination with 1st site corrector VX-809 (3 μM)

T1 sequence (P13569 with tags, fused parts or gaps DEL508-508): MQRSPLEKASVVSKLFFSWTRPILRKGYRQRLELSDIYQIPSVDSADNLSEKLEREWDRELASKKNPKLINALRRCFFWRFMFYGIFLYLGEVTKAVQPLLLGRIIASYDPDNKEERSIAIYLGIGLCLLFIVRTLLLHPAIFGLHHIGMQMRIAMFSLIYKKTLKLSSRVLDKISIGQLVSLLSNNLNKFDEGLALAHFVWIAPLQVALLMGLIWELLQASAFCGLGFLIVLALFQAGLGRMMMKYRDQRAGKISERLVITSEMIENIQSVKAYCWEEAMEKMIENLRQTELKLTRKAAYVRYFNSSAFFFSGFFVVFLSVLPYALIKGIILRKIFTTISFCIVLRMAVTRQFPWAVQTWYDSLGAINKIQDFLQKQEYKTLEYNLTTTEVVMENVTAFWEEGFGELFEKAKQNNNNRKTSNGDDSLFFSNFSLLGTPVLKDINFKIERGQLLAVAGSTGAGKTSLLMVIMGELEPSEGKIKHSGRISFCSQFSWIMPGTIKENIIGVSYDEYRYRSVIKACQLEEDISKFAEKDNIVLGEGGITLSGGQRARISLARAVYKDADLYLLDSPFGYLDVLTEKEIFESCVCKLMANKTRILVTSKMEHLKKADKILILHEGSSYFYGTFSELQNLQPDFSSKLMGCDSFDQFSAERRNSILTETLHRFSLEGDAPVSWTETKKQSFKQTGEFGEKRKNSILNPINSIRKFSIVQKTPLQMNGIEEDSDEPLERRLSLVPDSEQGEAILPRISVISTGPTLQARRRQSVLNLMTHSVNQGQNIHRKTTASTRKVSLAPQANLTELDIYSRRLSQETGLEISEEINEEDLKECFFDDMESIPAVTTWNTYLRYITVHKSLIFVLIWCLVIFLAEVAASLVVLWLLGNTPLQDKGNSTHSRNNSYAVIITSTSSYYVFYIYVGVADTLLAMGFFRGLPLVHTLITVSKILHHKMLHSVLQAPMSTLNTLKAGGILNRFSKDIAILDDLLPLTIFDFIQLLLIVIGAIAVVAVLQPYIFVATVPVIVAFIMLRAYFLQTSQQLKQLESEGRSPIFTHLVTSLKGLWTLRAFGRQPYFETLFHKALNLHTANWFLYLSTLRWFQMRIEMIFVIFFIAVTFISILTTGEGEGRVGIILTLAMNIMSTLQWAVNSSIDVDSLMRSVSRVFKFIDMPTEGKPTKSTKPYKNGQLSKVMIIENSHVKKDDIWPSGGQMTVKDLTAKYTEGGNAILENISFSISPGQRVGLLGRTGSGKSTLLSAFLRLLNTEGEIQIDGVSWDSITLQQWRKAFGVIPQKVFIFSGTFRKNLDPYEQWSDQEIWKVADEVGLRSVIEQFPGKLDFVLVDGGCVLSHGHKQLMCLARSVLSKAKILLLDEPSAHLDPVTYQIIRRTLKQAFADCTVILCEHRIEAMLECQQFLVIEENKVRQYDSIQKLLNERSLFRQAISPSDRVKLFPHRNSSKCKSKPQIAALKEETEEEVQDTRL

Compound | Nauc @ 1 μM [1] | Nauc @ 3 μM [2] | Nauc @ 10 μM [3] | Nauc @ 1 μM [4] | Nauc @ 3 μM [5] | Nauc @ 10 μM [6]
CC(C)(C)CN(C(=O)[C@H]1[C@H]2CC(C)(C)CN2C2(C(=O)Nc3c(Cl)cc(Cl)cc32)[C@H]1C(=O)O)c1cc(Cl)cc(Cl)c1 (single isomer, unassigned) [Example 274.6a, (1′R,2′S,7a′R)-5,7-dichloro-1-((3,5-dichlorophenyl)(neopentyl)carbamoyl)-6′,6′-dimethyl-2-oxo1′,2′,5′,6′,7′,7a′-hexahydrospiro[indoline-3,3′-pyrrolizine]-2′-carboxylic acid] | ++ (NAUC “++” refers to an observed NAUC 170-140% of positive control) | + (NAUC “+” refers to an observed NAUC <140% of positive control) | + (NAUC “+” refers to an observed NAUC <140% of positive control) | – | – | –
O=C(O)[C@@H]1[C@H](C(=O)N(CC2CC2)c2cc(Cl)cc(Cl)c2)[C@H](C(F)(F)F)NC12C(=O)Nc1c(Cl)cc(Cl)cc12 (single isomer, unassigned) [Example 270a] | +++ (NAUC “+++” refers to an observed NAUC>170% of positive control) | +++ (NAUC “+++” refers to an observed NAUC>170% of positive control) | ++ (NAUC “++” refers to an observed NAUC 170-140% of positive control) | – | – | –
Cn1ccc(NC(=O)[C@H]2[C@@H](C(=O)Nc3cc(Cl)cc(Cl)c3)[C@H]3CCCN3[C@]23C(=O)Nc2c(Cl)cc(Cl)cc23)n1 (single isomer, unassigned) [Example 240, (1′R,2′S,7a′R)-5,7-dichloro-N1′-(3,5-dichlorophenyl)-N2′-(1-methyl-1H-pyrazol-3-yl)-2-oxo-1′,2′,5′,6′,7′,7a′-hexahydrospiro[indoline-3,3′-pyrrolizine]-1′,2′-dicarboxamide] | – | – | – | + (NAUC “+” refers to an observed NAUC <140% of positive control) | + (NAUC “+” refers to an observed NAUC <140% of positive control) | + (NAUC “+” refers to an observed NAUC <140% of positive control)
Cn1cc(N(CC2CC2)C(=O)[C@H]2[C@H]3CC(F)(F)CN3[C@]3(C(=O)Nc4c(Cl)cc(Cl)cc43)[C@H]2C(=O)O)c(C(F)(F)F)n1 [Example 166] | + (NAUC “+” refers to an observed NAUC <140% of positive control) | + (NAUC “+” refers to an observed NAUC <140% of positive control) | – | – | – | –
Cc1nn(C)cc1N(CC1CC1)C(=O)[C@H]1[C@H]2CC(F)(F)CN2[C@]2(C(=O)Nc3c(Cl)cc(Cl)cc32)[C@H]1C(=O)O [Example 165] | + (NAUC “+” refers to an observed NAUC <140% of positive control) | + (NAUC “+” refers to an observed NAUC <140% of positive control) | – | – | – | –
O=C(O)[C@H]1[C@@H](C(=O)N(CC2CCCCC2)c2cc(Cl)cc(Cl)c2)[C@H]2CC(F)(F)CN2[C@]12C(=O)Nc1c(Cl)cc(Cl)cc12 [Example 177] | +++ (NAUC “+++” refers to an observed NAUC>170% of positive control) | ++ (NAUC “++” refers to an observed NAUC 170-140% of positive control) | ++ (NAUC “++” refers to an observed NAUC 170-140% of positive control) | – | – | –
CC(C)(C)c1cccc(CCNC(=O)C2C3CC(F)(F)CN3C3(C(=O)Nc4c(Cl)cc(Cl)cc43)C2C(=O)O)c1 (racemic) [Example 44, (1′R,2′S,3R,7a′R)-1′-((3-(tert-butyl)phenethyl)carbamoyl)-5,7-dichloro-6′,6′-difluoro-2-oxo-1′,2′,5′,6′,7′,7a′-hexahydrospiro[indoline-3,3′-pyrrolizine]-2′-carboxylic acid] | – | – | – | – | +++ (NAUC “+++” refers to an observed NAUC>170% of positive control) | +++ (NAUC “+++” refers to an observed NAUC>170% of positive control)
O=C(Nc1cccc2c1OCCO2)[C@H]1[C@H]2CC(F)(F)CN2[C@]2(C(=O)Nc3c(Cl)cc(Cl)cc32)[C@H]1C(=O)O [Example 129] | – | – | – | + (NAUC “+” refers to an observed NAUC <140% of positive control) | + (NAUC “+” refers to an observed NAUC <140% of positive control) | –
O=C(Nc1nccc2ccccc12)[C@H]1[C@H]2CC(F)(F)CN2[C@]2(C(=O)Nc3c(Cl)cc(Cl)cc32)[C@H]1C(=O)O [Example 122] | – | – | – | + (NAUC “+” refers to an observed NAUC <140% of positive control) | + (NAUC “+” refers to an observed NAUC <140% of positive control) | –
COc1c(Cl)cc(N(C)C(=O)[C@H]2[C@H]3CC(F)(F)CN3C3(C(=O)Nc4c(Cl)cc(Cl)cc43)[C@H]2C(=O)O)cc1Cl (stereo partly drawn) [Example 291] | – | – | – | + (NAUC “+” refers to an observed NAUC <140% of positive control) | + (NAUC “+” refers to an observed NAUC <140% of positive control) | +++ (NAUC “+++” refers to an observed NAUC>170% of positive control)
O=C(O)[C@H]1[C@@H](C(=O)N(CC2CCC2)c2cc(Cl)cc(Cl)c2)[C@H]2CC(F)(F)CN2[C@]12C(=O)Nc1c(Cl)cc(Cl)cc12 [Example 148] | +++ (NAUC “+++” refers to an observed NAUC>170% of positive control) | +++ (NAUC “+++” refers to an observed NAUC>170% of positive control) | +++ (NAUC “+++” refers to an observed NAUC>170% of positive control) | – | – | –
CON(C)C(=O)[C@H]1[C@@H](C(=O)Nc2cc(Cl)cc(Cl)c2)[C@H]2CC(F)(F)CN2[C@]12C(=O)Nc1c(Cl)cc(Cl)cc12 [Example 227, (1′R,2′S,3R,7a′R)-5,7-dichloro-N1′-(3,5-dichlorophenyl)-6′,6′-difluoro-N2′-methoxy-N2′-methyl-2-oxo-1′,2′,5′,6′,7′,7a′-hexahydrospiro [indoline-3,3′-pyrrolizine]-1′,2′-dicarboxamide] | – | – | – | + (NAUC “+” refers to an observed NAUC <140% of positive control) | ++ (NAUC “++” refers to an observed NAUC 170-140% of positive control) | ++ (NAUC “++” refers to an observed NAUC 170-140% of positive control)
CN(C(=O)[C@H]1[C@H]2CC(F)(F)CN2C2(C(=O)Nc3ccccc32)[C@H]1C(=O)O)c1cc(Cl)cc(Cl)c1 (stereo partly drawn) [Example 102] | – | – | – | – | – | + (NAUC “+” refers to an observed NAUC <140% of positive control)
O=C(O)[C@H]1[C@@H](C(=O)N(c2cc(Cl)cc(Cl)c2)C2CCC2)[C@H]2CC(F)(F)CN2[C@]12C(=O)Nc1c(Cl)cc(Cl)cc12 [Example 152] | +++ (NAUC “+++” refers to an observed NAUC>170% of positive control) | +++ (NAUC “+++” refers to an observed NAUC>170% of positive control) | ++ (NAUC “++” refers to an observed NAUC 170-140% of positive control) | – | – | –
CC(C)(C)c1cccc(CCNC(=O)C2C(C(F)(F)F)NC3(C(=O)Nc4c(Cl)cc(Cl)cc43)C2C(=O)O)c1 (stereo not drawn) [Example 45] | – | – | – | – | +++ (NAUC “+++” refers to an observed NAUC>170% of positive control) | +++ (NAUC “+++” refers to an observed NAUC>170% of positive control)
CC(C)(C)CN(C(=O)[C@H]1[C@@H](C(=O)O)[C@]2(C(=O)Nc3c(Cl)cc(Cl)cc32)N2CC3(CC3)C[C@@H]12)c1cc(Cl)cc(Cl)c1 (single isomer, unassigned) [Example 275.7b] | +++ (NAUC “+++” refers to an observed NAUC>170% of positive control) | +++ (NAUC “+++” refers to an observed NAUC>170% of positive control) | ++ (NAUC “++” refers to an observed NAUC 170-140% of positive control) | – | – | –
O=C(Nc1ccc(O)cc1)C1C2CC(F)(F)CN2C2(C(=O)Nc3c(Cl)cc(Cl)cc32)C1C(=O)O (stereo not drawn) [Example 77.a] | – | – | – | – | – | + (NAUC “+” refers to an observed NAUC <140% of positive control)
CN(C(=O)[C@H]1[C@H]2CC(F)(F)CN2C2(C(=O)Nc3cc(Cl)ccc32)[C@H]1C(=O)O)c1cc(Cl)cc(Cl)c1 (stereo partly drawn) [Example 101] | + (NAUC “+” refers to an observed NAUC <140% of positive control) | + (NAUC “+” refers to an observed NAUC <140% of positive control) | – | – | – | –
O=C(O)[C@H]1[C@@H](C(=O)N(CC2CC2)c2cccc(CC(F)(F)F)c2)[C@H]2CC(F)(F)CN2[C@]12C(=O)Nc1c(Cl)cc(Cl)cc12 [Example 164] | +++ (NAUC “+++” refers to an observed NAUC>170% of positive control) | +++ (NAUC “+++” refers to an observed NAUC>170% of positive control) | +++ (NAUC “+++” refers to an observed NAUC>170% of positive control) | – | – | –
COc1cc(C(F)(F)F)cc(N(C)C(=O)[C@H]2[C@H]3CC(F)(F)CN3[C@]3(C(=O)Nc4c(Cl)cc(Cl)cc43)[C@H]2C(=O)O)n1 [Example 133] | – | – | – | +++ (NAUC “+++” refers to an observed NAUC>170% of positive control) | +++ (NAUC “+++” refers to an observed NAUC>170% of positive control) | +++ (NAUC “+++” refers to an observed NAUC>170% of positive control)
CC(=O)N1C(COCc2ccccc2)C(C(=O)Nc2cc(Cl)cc(Cl)c2)C(C(=O)O)C12C(=O)Nc1c(Cl)cc(Cl)cc12 (stereo not drawn) [Example 36] | – | – | – | – | + (NAUC “+” refers to an observed NAUC <140% of positive control) | +++ (NAUC “+++” refers to an observed NAUC>170% of positive control)
CC(C)(C)C(C)(C)CN(C(=O)[C@H]1[C@H]2CC(F)(F)CN2[C@]2(C(=O)Nc3c(Cl)cc(Cl)cc32)[C@H]1C(=O)O)c1cc(Cl)cc(Cl)c1 [Example 185] | +++ (NAUC “+++” refers to an observed NAUC>170% of positive control) | +++ (NAUC “+++” refers to an observed NAUC>170% of positive control) | + (NAUC “+” refers to an observed NAUC <140% of positive control) | – | – | –
